Where two headings read alike, the source gives them in different places. Where a SMILES comes first, the peptide text is derived from it. Bridges are numbered along the chain shown (N, C = ends). [ ]: non-standard residue; d: D form. Tle = CC(C)(C)[C@H](N)C(=O)O; dDab = NCC[C@@H](N)C(=O)O; Orn = NCCC[C@H](N)C(=O)O; Dab = NCC[C@H](N)C(=O)O; Dap = NC[C@H](N)C(=O)O
Tests used:
[1] = test system: Acinetobacter baumannii DSM 30008; format: cell-based
Description: (§1) Stock solutions were kept at +4° C., light protected.
(§2) The selective antimicrobial activities of the peptides were determined in 96-well plates (Greiner, polystyrene) by the standard NCCLS broth microdilution method (National Committee for Clinical Laboratory Standards 1993. Methods for dilution antimicrobial susceptibility tests for bacteria that grow aerobically, 3rd ed. Approved standard M7-A6; National Committee for Clinical laboratory standards, Wayne, Pa.) with slight modifications. Inocula of the microorganisms were diluted into Mueller-Hinton II (MH, cation adjusted) broth and compared with a 0.5 McFarland standard to give appr. 10^6 colony forming units (CFU)/mL. Aliquots (90 μl) of inoculate were added to 10 μl of MH broth+P-80 (Polysorbate 80, 0.002% final concentration) containing the peptide in serial two-fold dilutions. The following microorganisms were used to determine antibiotic selectivity of the peptides: Escherichia coli ATCC 25922, Klebsiella pneumoniae ATCC 13883 and Acinetobacter baumannii DSM 30008.

[2] = test system: Escherichia coli ATCC 25922; format: cell-based
Description: as §1, §2

[3] = test system: Klebsiella pneumoniae ATCC 13883; format: cell-based
Description: as §1, §2

[4] = test system: human red blood cells (hRBC); assay: Hemolysis: hemolytic activity at 100 μg/mL, 1 h at 37° C.
Description: Lyophilized peptides were weighed on a Microbalance (Mettler MT5) and dissolved in sterile water to a final concentration of 1 mg/mL. Stock solutions were kept at +4° C., light protected.
The peptides were tested for their hemolytic activity against human red blood cells (hRBC). Fresh hRBC were washed three times with phosphate buffered saline (PBS) and centrifuged for 5 min at 3000×g. Compounds (100 μg/mL) were incubated with 20% hRBC (v/v) for 1 h at 37° C. and shaking at 300 rpm. The final erythrocyte concentration was approximately 0.9×10^9 cells/mL. A value of 0% and 100% cell lyses, respectively, was determined by incubation of hRBC in the presence of PBS containing 0.001% acetic acid and 2.5% Triton X-100 in H2O, respectively. The samples were centrifuged, the supernatants were 8-fold diluted in PBS buffer and the optical densities (OD) were measured at 540 nm.
Percent hemolysis was calculated as follows: (OD540peptide/OD540H2O)×100%.

[5] = Mueller-Hinton II broth, 18-20 hours at 35° C.

Compound	Acinetobacter baumannii DSM 30008 MIC ([1]; DSM 30008) [µg/mL]	Escherichia coli ATCC 25922 MIC ([2]; ATCC 25922) [µg/mL]	Klebsiella pneumoniae ATCC 13883 MIC ([3]; ATCC 13883) [µg/mL]	Hemolysis at 100 μg/mL ([4]; red cells of human, 1 h, 100) [%]	Acinetobacter baumannii DSM 30008 MIC [1, 5] [µg/mL]	Escherichia coli ATCC 25922 MIC [2, 5] [µg/mL]	Klebsiella pneumoniae ATCC 13883 MIC [3, 5] [µg/mL]	Hemolysis at 100 μg/mL ([4]; 100 μg/mL, 20% hRBC, 1 h at 37° C.) [%]
CC(C)C[C@@H]1NC(=O)[C@H](CCCNC(=N)N)NC(=O)[C@H]2CCCN2C(=O)[C@H](C(C)C)NC(=O)[C@@H]2CSSC[C@H](NC1=O)C(=O)N[C@@H](Cc1ccc(O)cc1)C(=O)N[C@@H](CC(N)=O)C(=O)N[C@@H](CCCN)C(=O)N[C@H](CCN)C(=O)N[C@@H](CCN)C(=O)N[C@@H](Cc1c[nH]c3ccccc13)C(=O)N[C@@H](CCN)C(=O)N[C@@H](Cc1ccc(O)cc1)C(=O)N2 [Example 78, cyclo(-Leu-Cys-Tyr-Asn-Orn-^DDab-Dab-Trp-Dab-Tyr-Cys-Val-^DPro-Arg-)] (HELM PEPTIDE1{C.V.[dP].R.L.C.Y.N.[Orn].[NCC[C@@H](N[*:1])C(=O)[*:2]].[Dab].W.[Dab].Y}$PEPTIDE1,PEPTIDE1,1:R3-6:R3|PEPTIDE1,PEPTIDE1,1:R1-14:R2$$$V2.0)	1.5	1.5	1	1				
CC(C)C[C@@H]1NC(=O)[C@@H]2CCCN2C(=O)[C@@H](C)NC(=O)[C@H](CO)NC(=O)[C@@H]2CCNC(=O)C[C@H](NC1=O)C(=O)N[C@@H](Cc1ccc(O)cc1)C(=O)N[C@@H](CCN)C(=O)N[C@@H](CCCN)C(=O)N[C@H](CCN)C(=O)N[C@@H](CCN)C(=O)N[C@@H](Cc1c[nH]c3ccccc13)C(=O)N[C@@H](CCN)C(=O)N[C@@H](Cc1ccc(O)cc1)C(=O)N2 [Example 77, cyclo(-Leu-Asp-Tyr-Dab-Orn-^DDab-Dab-Trp-Dab-Tyr-Dab-Ser-^DAla-Pro-)] (HELM PEPTIDE1{L.D.Y.[Dab].[Orn].[NCC[C@@H](N[*:1])C(=O)[*:2]].[Dab].W.[Dab].Y.[Dab].S.[dA].P}$PEPTIDE1,PEPTIDE1,2:R3-11:R3|PEPTIDE1,PEPTIDE1,1:R1-14:R2$$$V2.0)	3	1.5	2	1				
CC(C)C[C@@H]1NC(=O)[C@H](CCCNC(=N)N)NC(=O)[C@@H](CCN)NC(=O)[C@H](C(C)C)NC(=O)[C@@H]2CSSC[C@H](NC1=O)C(=O)N[C@@H](Cc1ccc(O)cc1)C(=O)N[C@@H](CC(N)=O)C(=O)N[C@@H](CCN)C(=O)N[C@H](CCN)C(=O)N[C@@H](CCN)C(=O)N[C@@H](Cc1c[nH]c3ccccc13)C(=O)N[C@@H](CO)C(=O)N[C@@H](Cc1ccc(O)cc1)C(=O)N2 [Example 56, cyclo(-Leu-Cys-Tyr-Asn-Dab-^DDab-Dab-Trp-Ser-Tyr-Cys-Val-^DDab-Arg-)] (HELM PEPTIDE1{C.V.[NCC[C@@H](N[*:1])C(=O)[*:2]].R.L.C.Y.N.[Dab].[NCC[C@@H](N[*:1])C(=O)[*:2]].[Dab].W.S.Y}$PEPTIDE1,PEPTIDE1,1:R3-6:R3|PEPTIDE1,PEPTIDE1,1:R1-14:R2$$$V2.0)	0.625	1	1	1				
CC(C)C[C@@H]1NC(=O)[C@H](CCCNC(=N)N)NC(=O)[C@@H](CCCCN)NC(=O)[C@H](C(C)C)NC(=O)[C@@H]2CSSC[C@H](NC1=O)C(=O)N[C@@H](Cc1ccc(O)cc1)C(=O)N[C@@H](CC(N)=O)C(=O)N[C@@H](CCCN)C(=O)N[C@H](CCN)C(=O)N[C@@H](CCN)C(=O)N[C@@H](Cc1c[nH]c3ccccc13)C(=O)N[C@@H](CO)C(=O)N[C@@H](Cc1ccc(O)cc1)C(=O)N2 [Example 65, cyclo(-Leu-Cys-Tyr-Asn-Orn-^DDab-Dab-Trp-Ser-Tyr-Cys-Val-^DLys-Arg-)] (HELM PEPTIDE1{C.V.[dK].R.L.C.Y.N.[Orn].[NCC[C@@H](N[*:1])C(=O)[*:2]].[Dab].W.S.Y}$PEPTIDE1,PEPTIDE1,1:R3-6:R3|PEPTIDE1,PEPTIDE1,1:R1-14:R2$$$V2.0)	1.25	2	1	1				
CC[C@H](C)[C@@H]1NC(=O)[C@@H]2CCCN2C(=O)[C@@H](CCN)NC(=O)[C@H](CO)NC(=O)[C@H](C)NC(=O)[C@H](C(C)(C)C)NC(=O)[C@H](CCN)NC(=O)[C@H](Cc2c[nH]c3ccccc23)NC(=O)[C@H](CCN)NC(=O)[C@@H](CCN)NC(=O)[C@H](CCCN)NC(=O)[C@H](CCN)NC(=O)[C@H](Cc2ccc(O)cc2)NC(=O)[C@H]([C@@H](C)O)NC1=O [Example 48, cyclo(-Ile-Thr-Tyr-Dab-Orn-^DDab-Dab-Trp-Dab-tBuGly-Ala-Ser-^DDab-Pro-)] (cyclo(AS[dDab]PITY[Dab][Orn][dDab][Dab]W[Dab][Tle]))	8	1	2	1				
CC(C)[C@@H]1NC(=O)[C@@H]2CCCN2C(=O)[C@@H](Cc2ccc(O)cc2)NC(=O)[C@H]([C@@H](C)O)NC(=O)[C@@H]2CSSC[C@H](NC1=O)C(=O)N[C@@H](Cc1ccc(O)cc1)C(=O)N[C@@H](CCN)C(=O)N[C@@H](CN)C(=O)N[C@@H](CCN)C(=O)N[C@@H](CCN)C(=O)N[C@@H](Cc1c[nH]c3ccccc13)C(=O)N[C@@H](CCN)C(=O)N[C@@H](C(C)(C)C)C(=O)N2 [Example 15, cyclo(-Val-Cys-Tyr-Dab-Dap-Dab-Dab-Trp-Dab-tBuGly-Cys-Thr-^DTyr-Pro-)] (HELM PEPTIDE1{C.T.[dY].P.V.C.Y.[Dab].[NC[C@H](N[*:1])C(=O)[*:2]].[Dab].[Dab].W.[Dab].[CC(C)(C)[C@H](N[*:1])C(=O)[*:2]]}$PEPTIDE1,PEPTIDE1,1:R3-6:R3|PEPTIDE1,PEPTIDE1,1:R1-14:R2$$$V2.0)					0.5	0.5	0.25	2
CC[C@H](C)[C@@H]1NC(=O)[C@H](C)NC(=O)[C@@H](CCN)NC(=O)[C@H](CO)NC(=O)[C@@H]2CSSC[C@H](NC1=O)C(=O)N[C@@H](Cc1ccc(O)cc1)C(=O)N[C@@H](CCN)C(=O)N[C@@H](CCCN)C(=O)N[C@H](CCN)C(=O)N[C@@H](CCN)C(=O)N[C@@H](Cc1c[nH]c3ccccc13)C(=O)N[C@@H](CCN)C(=O)N[C@@H](C(C)(C)C)C(=O)N2 [Example 13, cyclo(-Ile-Cys-Tyr-Dab-Orn-^DDab-Dab-Trp-Dab-tBuGly-Cys-Ser-^DDab-Ala-)] (cyclo(AICY[Dab][Orn][dDab][Dab]W[Dab][Tle]CS[dDab]); disulfide 3-12)	2	0.5	8	1				
CC(C)[C@@H]1NC(=O)[C@@H]2CCCN2C(=O)[C@@H](C)NC(=O)[C@H](CO)NC(=O)[C@@H]2CC(=O)NCC[C@H](NC1=O)C(=O)N[C@@H](Cc1ccc(O)cc1)C(=O)N[C@@H](CCN)C(=O)N[C@@H](CN)C(=O)N[C@H](CCN)C(=O)N[C@@H](CCN)C(=O)N[C@@H](Cc1c[nH]c3ccccc13)C(=O)N[C@@H](CCN)C(=O)N[C@@H](C(C)(C)C)C(=O)N2 [Example 27, cyclo(-Val-Dab-Tyr-Dab-Dap-^DDab-Dab-Trp-Dab-tBuGly-Asp-Ser-^DAla-Pro-)] (cyclo(DS[dA]PV[Dab]Y[Dab][Dap][dDab][Dab]W[Dab][Tle]); lactam 1-6)	1	0.5	0.5	2				
CC(C)C[C@@H]1NC(=O)[C@H](CCCNC(=N)N)NC(=O)[C@@H](CCN)NC(=O)[C@H](C(C)C)NC(=O)[C@@H]2CSSC[C@H](NC1=O)C(=O)N[C@@H](Cc1ccc(O)cc1)C(=O)N[C@@H](CN)C(=O)N[C@@H](CCCN)C(=O)N[C@H](CCN)C(=O)N[C@@H](CCN)C(=O)N[C@@H](Cc1c[nH]c3ccccc13)C(=O)N[C@@H](CO)C(=O)N[C@@H](Cc1ccc(O)cc1)C(=O)N2 [Example 72, cyclo(-Leu-Cys-Tyr-Dap-Orn-^DDab-Dab-Trp-Ser-Tyr-Cys-Val-^DDab-Arg-)] (cyclo(CV[dDab]RLCY[Dap][Orn][dDab][Dab]WSY); disulfide 1-6)	0.625	0.75	0.5	3				

Source: US11753446B2, “Beta-hairpin peptidomimetics” (POLYPHOR AG, priority 2014, dated 2023)
